Assay results published in US4495101A, “Antiinflammatory 5H-tetrazolo (5,1-c)(1,4)benzodiazepine derivatives” (American Home Products Corporation, priority 1983, dated 1985).

Tested on: carrageenan-induced paw edema
Test: rat carrageenan edema test (paw volume, mercury plethysmography)
Type: in vivo, male Sprague-Dawley or Charles River rats
Conditions: 150 mg/kg oral, one hour prior to 1% carrageenan, read three hours after carrageenan, vs control, *p ≤ 0.05, **p ≤ 0.01
Method: The anti-inflammatory activity of the claimed compounds was established by direct measurement of the effect of structurally representative compounds in the rat carrageenan edema test. This standard pharmacological procedure for determining antiinflammatory effects of a compound is performed by subcutaneous injection in the right paw of 6 animals (140-180 grams, male Sprague-Dawley or Charles River rats) with 0.1 milliliter of 1 percent carrageenan at zero time. The compounds representative of this invention are administered orally one hour prior to carrageenan at 150 milligrams per kilogram. The paw volume (edema in milliliters) is determined at zero time and three hours after carrageenan administration by mercury plethysmographic readings (milliliter) of the paw. From the change in paw volume compared to control, the percent inhibition of edema is determined. The results obtained with the compounds of Examples 1, 9, 17 and 18, which are representative of the other compounds of the invention, are as follows: […]

O=C1Nc2ccc(Cl)cc2Cn2nnnc21 [Example 1, 7-Chloro-5,10-dihydro-11H-tetrazolo[5,1-c][1,4]-benzodiazepine-11-one]
% Inhibition of Edema: 39%

S=C1Nc2ccc(Cl)cc2Cn2nnnc21 [Example 9, 5,10-Dihydro-7-Chloro-11H-tetrazolo[5,1-c][1,4]-benzodiazepine-11-thione]
% Inhibition of Edema: 42%

CN1CCN(C2=Nc3cc(Cl)ccc3Cn3nnnc32)CC1 [Example 17, 8-Chloro-11-(4-methyl-1-piperazinyl)-5H-tetrazolo[5,1-c][1,4]benzodiazepine]
% Inhibition of Edema: 42%

Cc1ccc2c(c1)Cn1nnnc1C(N1CCN(C)CC1)=N2 [Example 18, 7-Methyl-11-(4-methyl-1-piperazinyl)-5H-tetrazolo[5,1-c][1,4]benzodiazepine]
% Inhibition of Edema: 33%
